This note sets out measurements from ChEMBL document CHEMBL1138048, “Synthesis and anticancer activity of brefeldin A ester derivatives” (J Med Chem, 2006).

The test system of one data set is MCF7. In words: Antiproliferative activity against human MCF7 cell line. Format: functional.
A short description of data set [1]: Half life in rat plasma. It counts as ADME, cell-free.
A further data set deals with OVCAR-3. Kind of data set: Antiproliferative activity against human OVCAR-3 cell line. It counts as functional.
Data set [2] deals with Panel NCI-60 (60 carcinoma cell lines). Kind of data set: Antiproliferative activity against NCI60 cell line. It counts as functional. The note with it: Homo sapiens.
For another data set, the system named is SF-539. In words: Antiproliferative activity against human SF539 cell line. It counts as functional.
The next data set concerns A549. Kind of data set: Antiproliferative activity against human A549 cell line. It counts as functional.
In another data set the test system is PC-3. In words: Antiproliferative activity against human PC3 cell line. Format: functional.
The test system of another data set is HCT-116. In words: Antiproliferative activity against HCT116 cell line. As to conditions: Homo sapiens. It counts as functional.
Another data set concerns SN12C. Kind of data set: Antiproliferative activity against human SN12C cell line. It counts as functional.
In another data set the test system is UACC-62. Kind of data set: Antiproliferative activity against human UACC62 cell line. It counts as functional.

On to `C[C@H]1CCC/C=C/[C@@H]2C[C@H](OC(=O)CCCC(=O)O)C[C@H]2[C@H](O)/C=C/C(=O)O1`, for which the 50% growth inhibitory concentration (GI50) (commonly the concentration giving 50% growth inhibition) in the data set on MCF7 was determined as 19000 nM; with OVCAR-3 it was 20400 nM; in [2] it was 13000 nM; in the data set on SF-539, 22400 nM; in the data set with A549 it was 33200 nM; in the data set on PC-3, 19500 nM. Moreover, the values for the GI50 in the data set with HCT-116 and in the data set on SN12C were 21400 nM and 32400 nM, respectively. Besides, the half-life (in general, how long it takes for the measured level to halve) in data set [1] is greater than 1440 min.
`COC(=O)CCCC(=O)O[C@@H]1/C=C/C(=O)O[C@@H](C)CCC/C=C/[C@@H]2C[C@H](O)C[C@H]21`: the GI50 with MCF7 turned out to be 310 nM; with UACC-62, 10 nM; in the data set on OVCAR-3 it was 2400 nM; in data set [2] it was 160 nM; with SF-539, 3390 nM; in the data set with A549 it was 4170 nM. The figures for the GI50 in the data set with PC-3, with HCT-116 and in the data set on SN12C were 40 nM, 3470 nM and 10 nM, respectively.
Regarding `C[C@H]1CCC/C=C/[C@@H]2C[C@H](OC(=O)CCCC(=O)NCCCCCCO)C[C@H]2[C@H](O)/C=C/C(=O)O1`, the 50% growth inhibitory concentration (GI50) is 180 nM in the data set with MCF7; 470 nM in data set [2]; 700 nM in the data set with A549; 330 nM with PC-3; 650 nM in the data set with HCT-116.
With `C[C@H]1CCC/C=C/[C@@H]2C[C@H](OC(=O)CCCC(=O)O)C[C@H]2[C@H](OC(=O)CCCC(=O)O)/C=C/C(=O)O1`, the 50% growth inhibitory concentration (GI50) is greater than 100000 nM in the data set with MCF7; greater than 100000 nM in the data set with UACC-62; greater than 100000 nM with OVCAR-3; 97700 nM in data set [2]; greater than 100000 nM in the data set with SF-539; greater than 100000 nM in the data set on A549. Further, the GI50 with PC-3, with HCT-116 and with SN12C was greater than 100000 nM each time.
Turning to `COC(=O)CCCC(=O)O[C@@H]1C[C@@H]2[C@H](/C=C/CCC[C@H](C)OC(=O)/C=C/[C@H]2OC(=O)CCCC(=O)OC)C1`, the GI50 with MCF7 turned out to be 2570 nM; with UACC-62, 4470 nM; with OVCAR-3 it was 600 nM; in data set [2], 5100 nM; in the data set with SF-539 it was 5010 nM; with A549 it was 12900 nM. Moreover, the values for the GI50 in the data set with PC-3, in the data set with HCT-116 and with SN12C were 5010 nM, 3470 nM and 3020 nM, respectively.
For the molecule `CC(=O)O[C@@H]1C[C@H]2[C@H](O)/C=C/C(=O)O[C@@H](C)CCC/C=C/[C@@H]2C1`, the GI50 with MCF7 was 20 nM; in the data set with UACC-62 it was 10 nM; in the data set on OVCAR-3, 10 nM; in data set [2], 40 nM; in the data set with SF-539 it was 5250 nM; in the data set on A549, 10 nM. Further, the concentration for 50% growth inhibition (GI50) with PC-3 was determined as 40 nM; with HCT-116, 1150 nM; with SN12C, 10 nM. In [1], the half-life was determined as 30 min.
With `C[C@H]1CCC/C=C/[C@@H]2C[C@H](O)C[C@H]2[C@H](O)/C=C/C(=O)O1` [BREFELDIN A], the concentration for 50% growth inhibition (GI50) with MCF7 amounted to 20 nM; with UACC-62, 20 nM; in the data set with OVCAR-3, 30 nM; in data set [2], 40 nM; in the data set with A549, 40 nM; with PC-3, 50 nM. This molecule registered a 50% growth inhibitory concentration (GI50) in the data set with HCT-116 of 30 nM. In data set [1], this molecule had a half-life greater than 1440 min.
On to `COC(=O)CCCC(=O)O[C@@H]1C[C@H]2[C@H](O)/C=C/C(=O)O[C@@H](C)CCC/C=C/[C@@H]2C1`, for which the GI50 is 40 nM with MCF7; 130 nM in the data set with UACC-62; 30 nM in the data set on OVCAR-3; 110 nM in [2]; 70 nM in the data set with SF-539; 50 nM in the data set on A549. In addition, the GI50 in the data set on PC-3 was found to be 60 nM; in the data set on HCT-116, 40 nM; in the data set with SN12C, 200 nM. Further, the half-life in [1] is 3 min.
As for `C[C@H]1CCC/C=C/[C@@H]2C[C@H](O)C[C@H]2[C@H](OC(=O)CCCC(=O)O)/C=C/C(=O)O1`, the GI50 in the data set with MCF7 amounted to 39800 nM; in the data set on UACC-62, 31600 nM; with OVCAR-3, 36300 nM; in data set [2] it was 29500 nM; with SF-539 it was 31600 nM; in the data set on A549, 33100 nM. Also, the GI50 worked out at 43600 nM with PC-3, 25700 nM in the data set with HCT-116 and 30200 nM in the data set with SN12C.
Take `CC(=O)O[C@@H]1C[C@@H]2[C@H](/C=C/CCC[C@H](C)OC(=O)/C=C/[C@H]2OC(C)=O)C1`: the concentration for 50% growth inhibition (GI50) in the data set with MCF7 came to 2630 nM; in the data set on UACC-62, 10 nM; in the data set on OVCAR-3, 1480 nM; in data set [2] it was 450 nM; in the data set with SF-539 it was 58900 nM; in the data set with A549, 850 nM. Further, the GI50 in the data set with PC-3 came out at 2140 nM; in the data set with HCT-116 it was 22900 nM; with SN12C it was 10 nM.
